Measured values from patent publication US11524966B1 (Valo Early Discovery, Inc., priority 2017, dated 2022).

The molecules below were run against T1, USP25 (USP25-His6, Boston Biochem E-546) (Homo sapiens, UniProt Q9UHP3) (assay: Ubiquitin-Rhodamine 110 Assay for USP25 Activity, Example A-2). Conditions: Ubiquitin-Rhodamine 110 assay, Example A-2; read-out: USP25 A-2 IC50 range.
T1 construct: His6; purchased Boston Biochem E-546
T1 sequence (Q9UHP3 1-1055): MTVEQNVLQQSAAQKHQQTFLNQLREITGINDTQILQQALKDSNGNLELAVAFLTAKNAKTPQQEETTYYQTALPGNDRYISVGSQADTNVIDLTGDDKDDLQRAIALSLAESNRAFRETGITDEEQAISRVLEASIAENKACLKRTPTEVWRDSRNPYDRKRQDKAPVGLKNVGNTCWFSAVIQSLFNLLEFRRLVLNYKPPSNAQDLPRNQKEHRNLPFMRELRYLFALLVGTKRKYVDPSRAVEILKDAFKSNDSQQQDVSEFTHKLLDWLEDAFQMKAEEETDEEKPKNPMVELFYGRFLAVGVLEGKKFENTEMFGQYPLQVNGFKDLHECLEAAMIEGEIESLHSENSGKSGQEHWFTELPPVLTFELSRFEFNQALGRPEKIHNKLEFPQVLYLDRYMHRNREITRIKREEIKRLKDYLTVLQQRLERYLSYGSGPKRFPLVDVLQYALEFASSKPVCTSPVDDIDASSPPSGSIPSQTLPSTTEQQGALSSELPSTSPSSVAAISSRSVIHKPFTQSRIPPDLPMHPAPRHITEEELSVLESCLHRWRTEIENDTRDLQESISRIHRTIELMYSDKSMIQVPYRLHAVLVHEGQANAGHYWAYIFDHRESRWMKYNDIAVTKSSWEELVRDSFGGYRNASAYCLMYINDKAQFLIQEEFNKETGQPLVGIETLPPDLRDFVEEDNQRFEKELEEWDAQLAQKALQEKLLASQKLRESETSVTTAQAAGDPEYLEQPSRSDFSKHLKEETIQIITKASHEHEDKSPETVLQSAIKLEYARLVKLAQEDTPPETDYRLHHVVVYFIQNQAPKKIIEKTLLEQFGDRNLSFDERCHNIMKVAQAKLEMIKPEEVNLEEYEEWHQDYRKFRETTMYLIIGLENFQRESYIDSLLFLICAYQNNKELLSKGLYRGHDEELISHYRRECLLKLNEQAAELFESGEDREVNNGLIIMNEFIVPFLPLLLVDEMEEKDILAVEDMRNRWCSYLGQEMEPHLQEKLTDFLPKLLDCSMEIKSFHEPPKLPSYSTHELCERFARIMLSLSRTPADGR
Assay type: biochemical
Summary of the method: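 Read-out: Rh110 fluorescence (ex 485, em 535 nm) after 45 min RT turnover of 25 nM Ub-Rh110 by 75 pM USP25-His6, quenched with 10 mM citric acid. Compounds at 25 μM–1.3 nM, preincubated 30 min with enzyme. IC50 from 4-parameter logistic fit.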
With `Cc1ccc2c(N)c(C(=O)N[C@H]3COc4cc(N5C[C@H](N)[C@H](C(F)F)C5)ccc4C3)sc2n1` [Example 167, 3-amino-N-[(3R)-7-[(3R,4R)-3-amino-4-(difluoromethyl)pyrrolidin-1-yl]-3,4-dihydro-2H-1-benzopyran-3-yl]-6-methylthieno[2,3-b]pyridine-2-carboxamide] the IC50 was 0.2 to 2 µM.
`Cc1ccc2c(N)c(C(=O)N[C@H]3COc4cc(N5C[C@@H](N)[C@@H](C(F)F)C5)ccc4C3)sc2n1` [Example 168, 3-amino-N-[(3R)-7-[(3S,4S)-3-amino-4-(difluoromethyl)pyrrolidin-1-yl]-3,4-dihydro-2H-1-benzopyran-3-yl]-6-methylthieno[2,3-b]pyridine-2-carboxamide] was tested, and the IC50 was 0.2 to 2 µM.
For `Cc1ccc2c(N)c(C(=O)N[C@H]3COc4cc(N5CC6CCC(C5)N6)cc(F)c4C3)oc2n1` [Example 170, 3-amino-N-[(3R)-7-{3,8-diazabicyclo[3.2.1]octan-3-yl}-5-fluoro-3,4-dihydro-2H-1-benzopyran-3-yl]-6-methylfuro[2,3-b]pyridine-2-carboxamide], the IC50 was greater than 2 µM.
For `Cc1ccc2c(N)c(C(=O)N[C@H]3CCc4cc(N5CC6CCC(C5)N6)ccc4C3)oc2n1` [Example 171, 3-amino-N-[(2S)-6-{3,8-diazabicyclo[3.2.1]octan-3-yl]-1,2,3,4-tetrahydronaphthalen-2-yl]-6-methylfuro[2,3-b]pyridine-2-carboxamide], the IC50 was greater than 2 µM.
`Cc1ccc2c(N)c(C(=O)N[C@H]3COc4c(F)c(N5CC6CCC(C5)N6)cc(F)c4C3)oc2n1` [Example 172, 3-amino-N-[(3R)-7-{3,8-diazabicyclo[3.2.1]octan-3-yl}-5,8-difluoro-3,4-dihydro-2H-1-benzopyran-3-yl]-6-methylfuro[2,3-b]pyridine-2-carboxamide] showed an IC50 greater than 2 µM.
`Cc1ccc2c(N)c(C(=O)N[C@H]3COc4nc(N5CC6CCC(C5)N6)ccc4C3)sc2n1` [Example 173, 3-amino-N-[(3R)-7-{3,8-diazabicyclo[3.2.1]octan-3-yl]-2H,3H,4H-pyrano[2,3-b]pyridin-3-yl]-6-methylthieno[2,3-b]pyridine-2-carboxamide] was tested, and the IC50 was 0.2 to 2 µM.
`CO[C@H]1CN(c2cc(F)c3c(c2C#N)OC[C@H](NC(=O)c2sc4nc(C)cnc4c2N)C3)C[C@@H]1N` [Example 174, 7-amino-N-[(3R)-7-[(3S,4S)-3-amino-4-methoxypyrrolidin-1-yl]-8-cyano-5-fluoro-3,4-dihydro-2H-1-benzopyran-3-yl]-3-methylthieno[2,3-b]pyrazine-6-carboxamide] showed an IC50 greater than 2 µM.
With `CO[C@H]1CN(c2cc(F)c3c(c2C#N)OC[C@H](NC(=O)c2sc4nc(C)ccc4c2N)C3)C[C@@H]1N` [Example 175, 3-amino-N-[(3R)-7-[(3S,4S)-3-amino-4-methoxypyrrolidin-1-yl]-8-cyano-5-fluoro-3,4-dihydro-2H-1-benzopyran-3-yl]-6-methylthieno[2,3-b]pyridine-2-carboxamide] the IC50 was greater than 2 µM.
For `CO[C@H]1CN(c2cc3c(cc2C#N)C[C@@H](NC(=O)c2sc4nc(C)cnc4c2N)CO3)C[C@@H]1N` [Example 176, 7-amino-N-[(3R)-7-[(3S,4S)-3-amino-4-methoxypyrrolidin-1-yl]-6-cyano-3,4-dihydro-2H-1-benzopyran-3-yl]-3-methylthieno[2,3-b]pyrazine-6-carboxamide], the IC50 was 0.05 to 0.2 µM.
